Here are results for seven molecules from US20040063660A1, “Diasteriomers of S-adenosyl-l-methionine and uses thereof” (priority 2000, published 2004).

The conditions of data set [1]: suggested; control of morning sickness during pregnancy; cited from earlier work.
Data set [2] deals with S-adenosyl-l-methionine-dependent methyltransferases. The note with it: cited from earlier work.
The subject of data set [3] is methyltransferases. The following applies: other methyltransferases; cited from earlier work.
The test system of data set [4] is patients with major depressive episode (DSM-III). Nature of the data set: open, non-blind study of depression, Hamilton Rating Scale for Depression. Type of data set: in vivo, human. The note with it: 400 mg twice daily, 14 days. The procedure:
(S,S)-S-adenosyl-l-methionine p-toluene sulfonate 400 mg was administered twice daily in an open, non-blind study of 10 volunteers who gave informed consent. All patients had normal results on pre-study medical examinations, including laboratory examinations. Patients received 400 mg of (S,S)-S-adenosyl-l-methionine p-toluene sulfonate in an enteric-coated tablet form twice daily for 14 days or until remission of depression symptoms. The 10 patients satisfied the DSM-III criteria for a major depressive episode. Patients' symptoms were monitored daily using the Hamilton Rating Scale for Depression. 9 patients completed the study. […] One patient had no change at all.

The test system of data set [5] is nucleolar 2-0-methyltransferase. The following applies: vs (R,S) diasteriomer; cited from earlier work.
In data set [6] the test system is alcoholic liver cirrhosis. The note with it: oral, vs placebo treated group; cited from earlier work.
Data set [7] relates to human erythrocytes. The note with it: incubated in vitro with human erythrocytes; cited from earlier work.
Data set [8] relates to Alzheimer's disease. The following applies: preliminary study; cited from earlier work.
Data set [9] has as its system brain oxidative status. The following applies: chronically administered, rats; cited from earlier work.
Data set [10] has as its system migraines. The note with it: human, in vivo; cited from earlier work.
For data set [11], the system named is memory. The note with it: treated vs age matched untreated animals, old and young; cited from earlier work.
In data set [12] the test system is total parenteral nutrition-induced cholestasis. The following applies: rat; cited from earlier work.
The subject of data set [13] is peripheral occlusive arterial disease. The following applies: patients with peripheral occlusive arterial disease; cited from earlier work.
For data set [14], the system named is intrahepatic cholestasis. The note with it: oral, intrahepatic cholestasis patients; cited from earlier work.
The subject of data set [15] is tumor necrosis factor alpha. The note with it: cited from earlier work.
For data set [16], the system named is muscarinic receptors. The note with it: rats treated chronically; cited from earlier work.
Data set [17] has as its system primary fibromyalgia. The following applies: oral, short-term trial; cited from earlier work.
Data set [18] deals with liver glutathione. The following applies: oral, patients with and without liver disease; cited from earlier work.
Data set [19] has as its system beta-adrenergic. The following applies: L-form vs D-enantiomer; cited from earlier work.
Where [20] appears, read: enteric-coated tablet, 9 patients completed.

In the case of `O=C1CCC(N2C(=O)c3ccccc3C2=O)C(=O)N1` (single isomer, unassigned) [D-enantiomer of thalidomide, thalidomide], the “safety and effect of thalidomide enantiomer in pregnancy” value in [1] was “safe and effective sedative”.
Consider `O=C1CCC(N2C(=O)c3ccccc3C2=O)C(=O)N1` (single isomer, unassigned) [L-enantiomer, thalidomide], for which the “safety and effect of thalidomide enantiomer in pregnancy” value in data set [1] was “potent teratogen”.
`C[S@@+](CC[C@@H](N)C(=O)O)C[C@H]1O[C@@H](n2cnc3c(N)ncnc32)[C@H](O)[C@@H]1O` [(R,S)-S-adenosyl-l-methionine]: in data set [2], the “inhibition of enzyme-catalyzed transmethylation reactions” value was “potent inhibitor”. Also, in data set [3], the “binding relative to (S,S)-S-adenosyl-l-methionine” value was “to the same extent”.
As to `C[S@@+](CC[C@H](N)C(=O)O)C[C@H]1O[C@@H](n2cnc3c(N)ncnc32)[C@H](O)[C@@H]1O.Cc1ccc(S(=O)(=O)[O-])cc1` [(S,S)-S-adenosyl-l-methionine p-toluene sulfonate], the “side effects (reported, laboratory or physical examination)” value in [4] is recorded as “No side effects were noted or reported”. Further, in [4] (setting [20]), the “patients who completed the trial and improved (Hamilton Rating Scale for Depression)” value is on record as “Eight of the nine”; the “patients with no change” value is “One”.
For the molecule `C[S@@+](CC[C@H](N)C(=O)O)C[C@H]1O[C@@H](n2cnc3c(N)ncnc32)[C@H](O)[C@@H]1O` [(S,S)-S-adenosyl-l-methionine], the “tightness of enzyme binding relative to (R,S)-S-adenosyl-l-methionine” value in [5] was 10 fold.
Regarding `C[S+](CC[C@H](N)C(=O)[O-])C[C@H]1O[C@@H](n2cnc3c(N)ncnc32)[C@H](O)[C@@H]1O` (stereo partly drawn) [S-adenosyl-l-methionine], in data set [6], the “overall mortality and/or progression to liver transplant” value is 12%. Also, the “ATP within the erythrocyte” value in data set [7] is “increases ATP within the cell”. Besides, the “cognitive effect in patients with Alzheimer's disease” value in data set [8] is recorded as “cognitive improvement”. In addition, the “oxidative status in the brain” value in data set [9] was “enhancing anti-oxidative defenses”. Further, the benefit in migraines entry in data set [10] was “found to be of benefit”. Further, the “performance in eight arm radical maze test versus untreated animals” value in data set [11] is on record as “out-perform”. Further, in data set [12], the “cholestasis resulting from total parenteral nutrition” value is given as “able to prevent cholestasis”. The blood viscosity entry in data set [13] is “reduce blood viscosity”. In addition, the “pruritus and biochemical markers of cholestasis” value in data set [14] is listed as “improvements in both the pruritus as well as the biochemical markers of cholestasis”. Besides, in [15], the “amount of tumor necrosis factor alpha secreted by cells” value is “decrease the amount” and the “damage caused by tumor necrosis factor alpha” value was “attenuates the damage”. Moreover, in data set [16], the “number of muscarinic receptors in the brain” value is “increase the number of muscarinic receptors”. Further, the “improvement in primary fibromyalgia” value in data set [17] is on record as “significant improvement”. The liver glutathione levels result in [18] is reported as “increases in liver glutathione levels”.
Take `CC(C)NCC(O)COc1cccc2ccccc12` (centres unmarked) [propranolol]: the “potency relative to the D-enantiomer” value in data set [19] is given as 100 times.
